Data taken from patent US20180346446A1, “IRE1 SMALL MOLECULE INHIBITORS” (QUENTIS THERAPEUTICS, INC., priority 2017, published 2018).

Columns and labels:
hERG channel = target: T1, hERG channel (Homo sapiens, UniProt Q12809); assay: hERG potassium ion channel automated planar clamp (QPatch); type: cell-based; conditions: hERG channel expressed in a stable CHO cell line, read-out: hERG channel blockade Mean IC50
T1 construct: expressed in transfected cells
Procedure: Blockade of the cardiac ion channel coded by the hERG gene can lead to cardiac arrhythmia. […] To determine the viability of the compounds disclosed herein as pharmacological agents that would not affect the hERG channel blockade, a standard automated planar clamp method was employed to determine the IC50 for various test compounds on their inhibition of the channel. An electrophysiological assay was prepared to measure the electric current passing through the hERG channel expressed in a stable CHO cell line by applying the planar clamp method. This assay was performed using the automated QPatch platform (Sophion, Denmark) which allows fast and accurate electrophysiological characterization of the hERG ion channel and the determination of IC50 values for the test compounds, as shown in Table 9.

293T cells = assay: Growth assay (cytotoxicity); type: cell-based; conditions: 2 day incubation
Procedure: A growth assay was performed to evaluate the compounds disclosed herein for cytotoxicity. Briefly, 5,000,000 293T cells were resuspended in 18 mL of cDMEM for a final concentration of 277,777 cells/mL. […] In a separate 96 well dilution plate, 199 uL cDMEM and 1 uL of DMSO or any one of the compounds disclosed herein (shown as Test Compound 1, 2, 3, 4, 5, or 6 below) were added to wells A4, A8, C4, C8, E4, E8, G4, and G8. 133.3 uL cDMEM was added to wells 1, 2, 3, 5, 6, and 7 in rows A, C, E and G of the dilution plate. Compounds were serially diluted leftwards in threefold dilutions (66.7 uL into 133.3 uL cDMEM). 20 uL of each dilution was transferred in duplicate (duplicates in vertical paired wells) to the cells plated in the 96-well plate shown in Table 5, to the total concentrations shown below. 200 uL cDMEM was added to media wells (wells G5-H8). The plate was then placed in a humidified chamber for a 2 day incubation, and then photographed (media was more yellow in wells with potent cell growth). Absorbance was then measured at about […] (lower for more acidic media) and about […] (higher for more acidic media).

IRE1a [1] = target: T2, IRE1a (Homo sapiens, UniProt O75460); assay: In vitro FRET assay (XBP1 RNA probe cleavage by IRE1a); type: biochemical; parameters: purchased SignalChem; conditions: 2 nM IRE1a protein
IRE1a [2] = target: T2, IRE1a; assay: IRE1a Endoribonuclease Nanoluciferase Assay (XBP1 luciferase reporter in 293T cells); type: cell-based; conditions: 293T cells transfected with XBP1 luciferase reporter, ER stressors +/- inhibitors
Procedure, shortened: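 293T cells were transfected with a PGK-Luc2-P2A-XBP1u-nanoluciferase-PEST reporter and plated in 96-well format. A day later they were treated with ER stressors with or without inhibitors. Lysates were read for luminescence with OneGlo, then again after Stop and Glo.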

[3] = Microsome stability assay, human liver microsomes; type: in vitro ADME; conditions: formic acid salt
Procedure: (§1) The formic acid salt of Compound 3 was tested under the microsome stability assay outlined below. Test compounds were incubated at 37° C. with liver microsomes (pooled from multiple donors) at […] in the presence of a NADPH regenerating system at 0.5 mg/ml microsomal protein. Positive controls included Testosterone (3A4 substrate), Propafenone (2D6) and Diclofenac (2C9), which were incubated with microsomes in the presence of an NADPH regenerating system. At time points (0, 5, 10, 20, 30 and 60 minutes), samples were removed and immediately mixed with cold acetonitrile containing internal standard (IS). Test compounds incubated with microsomes without the NADPH regenerating system for 60 min was also included. A single point for each test condition (n=1) was obtained, and samples were analyzed by LC/MS/MS. Disappearance of the test compound was assessed based on peak area ratios of analyte/IS (no standard curve).

[4] = system: IRE1a-mediated XBP1 splicing; assay: Inhibition of IRE1a signaling in cell types of the tumor microenvironment (metastatic ovarian cancer mice); type: in vivo; conditions: mice with metastatic ovarian cancer, 11 mg/kg, 12 hours, tumor cells, DC, CD4+ and CD8+ T cells from ascites
Procedure: A syngeneic mouse model for metastatic, orthotopic ovarian cancer was used to analyze the in vivo effects of compounds described herein. Assay conditions were similar to those described in Example 11, administering compound 3 for comparison against controls. […] After 12 hours, the ascites were drained and FACS was used to purify the cells into four populations: tumor cells, dendritic cells (DC), CD4+ T cells, and CD8+ T cells. Then, PCR and qPCR was used to quantify spliced Xbp1 transcripts and total Xbp1 transcripts. […] Compound 3 can therefore inhibit IRE1a-mediated XBP1 splicing in vivo in tumor cells and key immune cell types found within the tumor microenvironment.

[5] = Microsome stability assay, mouse liver microsomes; type: in vitro ADME; conditions: formic acid salt
Procedure: as §1

[6] = system: IRE1a-mediated XBP1 splicing; assay: Suppression of XBP1 splicing in liver of tunicamycin-injected mice; type: in vivo; conditions: 0.25 mg/kg tunicamycin, 10 mg/kg compound intraperitoneal, 4 hours, RT-qPCR
Procedure: Mice were injected with 0.25 mg/kg tunicamycin dissolved in DMSO: PBS at a ratio of 1:3. After 2 hours, the mice were injected with 10 mg/kg of Compound 3 dissolved in water or water alone as a vehicle control. After an additional 4 hours, the animals were euthanized, livers dissected out, and 2-3 mm^3 liver pieces are flash frozen on dry ice. Liver pieces were then thawed in Trizol on ice, homogenized for 3 minutes with a bead mill at medium-high speed. RNA was then extracted from the Trizol solution according to the manufacturer's recommendation. Gene expression analysis was also performed via Reverse Transcription quantitative PCR (RT-qPCR) using a Stratagene Mx3005 instrument and SYBR green I (Life Technologies). Gene expression was measured of the spliced Xbp1s transcript, a primer set measuring all Xbp1 transcripts, Xbp1s target genes including Sec24d and general ER stress response markers Hspa5 (BiP) and Ddit3 (CHOP).

T1 sequence (Q12809 whole entry): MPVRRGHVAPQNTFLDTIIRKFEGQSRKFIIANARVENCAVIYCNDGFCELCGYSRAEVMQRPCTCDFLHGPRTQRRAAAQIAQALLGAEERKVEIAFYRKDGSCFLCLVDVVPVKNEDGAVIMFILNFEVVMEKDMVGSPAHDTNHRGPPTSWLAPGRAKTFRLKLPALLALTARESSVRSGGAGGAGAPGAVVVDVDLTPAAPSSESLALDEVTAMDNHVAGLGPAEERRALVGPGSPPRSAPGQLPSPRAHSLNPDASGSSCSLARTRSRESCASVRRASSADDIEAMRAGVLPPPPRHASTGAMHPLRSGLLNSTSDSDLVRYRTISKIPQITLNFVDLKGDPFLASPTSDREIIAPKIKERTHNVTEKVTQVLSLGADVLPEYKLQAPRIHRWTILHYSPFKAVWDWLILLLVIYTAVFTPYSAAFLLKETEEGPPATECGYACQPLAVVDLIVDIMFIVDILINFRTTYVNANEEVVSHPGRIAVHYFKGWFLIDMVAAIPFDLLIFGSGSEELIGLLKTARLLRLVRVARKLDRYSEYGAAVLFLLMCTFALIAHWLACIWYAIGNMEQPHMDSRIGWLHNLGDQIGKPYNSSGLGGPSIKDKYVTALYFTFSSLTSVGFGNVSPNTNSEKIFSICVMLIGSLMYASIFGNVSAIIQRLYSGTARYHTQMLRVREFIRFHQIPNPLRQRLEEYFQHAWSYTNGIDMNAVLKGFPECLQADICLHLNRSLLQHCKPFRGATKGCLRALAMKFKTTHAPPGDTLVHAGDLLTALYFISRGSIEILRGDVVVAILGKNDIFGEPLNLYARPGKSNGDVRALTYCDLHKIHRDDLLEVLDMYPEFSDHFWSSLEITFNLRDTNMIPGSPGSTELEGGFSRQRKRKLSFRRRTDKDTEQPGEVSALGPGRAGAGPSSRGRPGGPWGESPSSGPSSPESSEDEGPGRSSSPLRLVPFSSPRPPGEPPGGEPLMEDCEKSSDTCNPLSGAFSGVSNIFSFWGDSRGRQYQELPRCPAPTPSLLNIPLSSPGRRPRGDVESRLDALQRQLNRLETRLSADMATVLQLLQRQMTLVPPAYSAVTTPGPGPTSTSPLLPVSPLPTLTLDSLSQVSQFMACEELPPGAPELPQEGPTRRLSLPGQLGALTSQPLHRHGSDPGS
T2 sequence (O75460 19-977): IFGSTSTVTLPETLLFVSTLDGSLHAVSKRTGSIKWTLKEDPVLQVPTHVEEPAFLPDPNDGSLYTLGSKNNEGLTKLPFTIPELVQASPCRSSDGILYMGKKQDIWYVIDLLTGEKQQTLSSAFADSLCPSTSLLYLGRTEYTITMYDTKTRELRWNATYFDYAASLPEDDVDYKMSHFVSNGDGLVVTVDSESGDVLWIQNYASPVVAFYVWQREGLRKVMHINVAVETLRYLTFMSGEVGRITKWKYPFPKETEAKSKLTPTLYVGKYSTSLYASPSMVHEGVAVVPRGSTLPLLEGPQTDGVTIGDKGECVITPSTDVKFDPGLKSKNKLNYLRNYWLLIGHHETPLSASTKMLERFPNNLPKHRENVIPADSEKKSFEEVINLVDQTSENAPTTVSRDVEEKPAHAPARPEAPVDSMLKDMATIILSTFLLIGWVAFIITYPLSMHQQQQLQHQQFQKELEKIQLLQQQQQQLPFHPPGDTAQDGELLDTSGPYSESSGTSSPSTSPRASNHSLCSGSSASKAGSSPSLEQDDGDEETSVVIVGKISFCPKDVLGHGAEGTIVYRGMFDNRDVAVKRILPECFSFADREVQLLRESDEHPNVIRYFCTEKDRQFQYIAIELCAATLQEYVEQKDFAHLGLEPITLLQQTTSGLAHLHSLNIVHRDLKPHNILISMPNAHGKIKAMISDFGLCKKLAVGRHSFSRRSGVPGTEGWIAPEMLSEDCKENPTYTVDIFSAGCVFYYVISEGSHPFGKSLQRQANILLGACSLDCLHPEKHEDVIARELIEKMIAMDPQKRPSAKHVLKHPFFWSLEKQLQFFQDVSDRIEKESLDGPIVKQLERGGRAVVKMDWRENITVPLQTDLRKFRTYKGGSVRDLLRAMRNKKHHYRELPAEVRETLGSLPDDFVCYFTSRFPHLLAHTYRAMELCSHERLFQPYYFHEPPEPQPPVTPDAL

Structure (SMILES)	IC50 (hERG channel)	% Growth at 0.185 uM (293T cells)	% Growth at 0.5556 uM (293T cells)	% Growth at 1.667 uM (293T cells)	% Growth at 5 uM (293T cells)	IC50 (IRE1a [1])	EC50 (IRE1a [2])	HLM Remaining at 60 min ([3]; 60 min)	Human CI ([3]; human liver microsomes, 37° C., NADPH regenerating system)	half-life at 1 NM ([3]; human, liver microsomes (pooled from multiple donors), 37° C., 0.5 mg/ml microsomal protein, NADPH regenerating system, read-out: Human Liver Microsome (HLM) T1/2)	splicing ratio of XBP1 (spliced Xbp1 transcripts divided by total Xbp1 transcripts) compared to vehicle-treated mice [4]	Mouse Liver Microsome CI ([5]; 37° C., NADPH regenerating system)	Mouse Liver Microsome Remaining at 60 min ([5]; 60 min)	half-life at 1 NM ([5]; mouse, liver microsomes (pooled from multiple donors), 37° C., 0.5 mg/ml microsomal protein, NADPH regenerating system, read-out: Mouse Liver Microsome T1/2)	suppression of IRE1a-mediated XBP1 splicing in vivo [6]
CCc1cc(-c2ccc(NS(=O)(=O)c3ccccc3Cl)cc2C)cc2cnc(N[C@H]3CC[C@H](N)CC3)nc12.O=CO [3; Formic Acid]	10000 to 50000 nM	D (D: >75% to ≤100%)	D (D: >75% to ≤100%)	C (C: >50% to ≤75%)	A (A: ≤25%)	≤ 5 nM	5 to 50 nM								
CCc1cc(-c2ccc(NS(=O)(=O)c3ccccc3Cl)nc2C)cc2cnc(N[C@H]3CC[C@H](N)CC3)nc12.O=CO [16; Formic Acid]	10000 to 50000 nM	D (D: >75% to ≤100%)	D (D: >75% to ≤100%)	D (D: >75% to ≤100%)	B (B: >25% to ≤50%)	≤ 5 nM	≤ 5 nM								
CCc1cc(-c2ccc(NS(=O)(=O)c3ccccc3Cl)c(F)c2)cc2cnc(N[C@H]3CC[C@H](N)CC3)nc12.O=CO [24; Formic Acid]	1000 to 10000 nM	D (D: >75% to ≤100%)	D (D: >75% to ≤100%)	C (C: >50% to ≤75%)	C (C: >50% to ≤75%)	≤ 5 nM	≤ 5 nM								
CCc1cc(-c2cc(F)c(NS(=O)(=O)c3ccccc3Cl)cc2C)cc2cnc(N[C@H]3CC[C@H](N)CC3)nc12.O=CO [21; Formic Acid]		D (D: >75% to ≤100%)	D (D: >75% to ≤100%)	D (D: >75% to ≤100%)	B (B: >25% to ≤50%)	≤ 5 nM	5 to 50 nM								
CCc1cc(-c2ccc(NS(=O)(=O)c3ccccc3Cl)cc2C)cc2cnc(N[C@H]3CC[C@H](N)CC3)nc12 [Compound 3, N-(4-(2-(((1r,4r)-4-aminocyclohexyl)amino)-8-ethylquinazolin-6-yl)-3-methylphenyl)-2-chlorobenzenesulfonamide]								44%	29.2 µL/min/mg	47.5 min	markedly reduced	31.9 µL/min/mg	41%	43.5 min	potently suppresses
CCc1cc(-c2ncc(NS(=O)(=O)c3ccccc3Cl)cn2)cc2cnc(N[C@H]3CC[C@H](N)CC3)nc12.O=CO [33; Formic Acid]		D (D: >75% to ≤100%)	D (D: >75% to ≤100%)	D (D: >75% to ≤100%)	C (C: >50% to ≤75%)	≤ 5 nM	≤ 5 nM								
CCc1cc(-c2ccc(NS(=O)(=O)c3ccccc3Cl)cc2OC)cc2cnc(N[C@H]3CC[C@H](N)CC3)nc12.O=CO [19; Formic Acid]		D (D: >75% to ≤100%)	D (D: >75% to ≤100%)	C (C: >50% to ≤75%)	A (A: ≤25%)	≤ 5 nM	≤ 5 nM								
